{"source": "patent US8993542B2", "about": "“Methods of treating viral infections” (priority 2008, dated 2015)", "key": {"[1]": {"system": "HIV-1IIIB", "assay": "Association of compound with concentrated virus (LC/MS/MS of viral pellets)", "type": "binding", "settings": "500 nM, 2 hours", "protocol": "To examine the potential of CMX157 to associate directly with virus, concentrated HIV-1IIIB (approximately 9.7×10^10 virus particles) is treated with 500 nM CMX157 or TFV for 2 hours. Following incubation, virus is pelleted to remove unbound compound, lysed with 70% ice cold methanol and centrifuged. Supernatants are analyzed in triplicate using LC/MS/MS (liquid chromatography/mass spectrometry). TFV, TFV mono- and diphosphate are separated by gradient, reverse phase, ion-paring chromatography and detected by positive ion electrospray. The levels of CMX157 associated with the viral pellets (≈37,000 molecules/virion) are much higher than the levels of TFV associated with viral pellets (≈100 molecules/virion)."}, "[2]": {"system": "HIV-1IIIB", "assay": "Two-drug combination antiviral assay in CEM cells (CPE), MacSynergy II", "type": "cell-based", "settings": "in combination with CMX157, CEM-SS cells, 95% confidence"}, "[3]": {"system": "HIV-1IIIB", "assay": "Resistance selection by serial passage in CEM-SS cells", "type": "cell-based", "protocol": "In vitro studies designed to select CMX157 resistant mutants use wild-type HIV-1 as the primary inoculum and TFV as a positive control. These studies are conducted by serial passage of HIV-1IIIB and HIV-1RF in CEM-SS cells using increasing concentrations of TFV or CMX157. Drug levels are increased following detection of viral growth at each passage using procedures known to one skilled in the art. Upon completion of each passage, the reverse transcriptase coding region of the viral genome is sequenced to identify any possible resistance-associated mutations that may have emerged within the virus pool."}, "[4]": {"settings": "Passage 1, Tenofovir 10 μM (2× IC50)"}, "[5]": {"settings": "Passage 2, Tenofovir 20 μM (4× IC50)"}, "[6]": {"settings": "Passage 3, Tenofovir 30 μM (6× IC50)"}, "[7]": {"settings": "Passage 4, Tenofovir 40 μM (8× IC50)"}, "[8]": {"settings": "Passage 5, Tenofovir 40 μM (8× IC50)"}, "[9]": {"settings": "Passage 6, Tenofovir 40 μM (8× IC50)"}, "[10]": {"settings": "Passage 7, Tenofovir 45 μM (9× IC50)"}, "[11]": {"settings": "Passage 8, Tenofovir 50 μM (10× IC50)"}, "[12]": {"settings": "Passage 9, Tenofovir 55 μM (11× IC50)"}, "[13]": {"settings": "Passage 10, Tenofovir 60 μM (12× IC50)"}}, "data": [{"compound": "C[C@H](Cn1cnc2c(N)ncnc21)OCP(=O)(O)O", "note": "[TFV, (R)-9-(2-phosphonylmethoxypropyl)adenine]", "values": [{"measurement": "levels associated with the viral pellets", "setting": "[1]", "result": "≈ 100 molecules/virion"}, {"measurement": "Antagonism Volume, Result 1", "setting": "[2]", "result": "−0.53 nM^2 %, μM^2 % or nMμM %"}, {"measurement": "Antagonism Volume, Result 2", "setting": "[2]", "result": "0 nM^2 %, μM^2 % or nMμM %"}, {"measurement": "Antagonism Volume, Result 3", "setting": "[2]", "result": "0 nM^2 %, μM^2 % or nMμM %"}, {"measurement": "Mean Antagonism Volume (n = 3)", "setting": "[2]", "result": "−0.18 nM^2 %, μM^2 % or nMμM %"}, {"measurement": "Mean Synergy Volume (n = 3)", "setting": "[2]", "result": "28.4 nM^2 %, μM^2 % or nMμM %"}, {"measurement": "Synergy Volume, Result 1", "setting": "[2]", "result": "17.6 nM^2 %, μM^2 % or nMμM %"}, {"measurement": "Synergy Volume, Result 2", "setting": "[2]", "result": "37.2 nM^2 %, μM^2 % or nMμM %"}, {"measurement": "Synergy Volume, Result 3", "setting": "[2]", "result": "30.3 nM^2 %, μM^2 % or nMμM %"}, {"measurement": "passage by which K65R was selected", "setting": "[3]", "result": "≤ 8", "unit": "passage"}, {"measurement": "Comments (virus replication)", "setting": "[3]; [4]", "result": "Low-level virus replication observed"}, {"measurement": "Day of Peak Virus Production", "setting": "[3]; [4]", "result": "Day 6"}, {"measurement": "Peak RT activity", "setting": "[3]; [4]", "result": "(3,525 cpm)"}, {"measurement": "Comments (virus replication)", "setting": "[3]; [5]", "result": "Low-level virus replication observed"}, {"measurement": "Day of Peak Virus Production", "setting": "[3]; [5]", "result": "Day 7"}, {"measurement": "Peak RT activity", "setting": "[3]; [5]", "result": "(2,016 cpm)"}, {"measurement": "Comments (virus replication)", "setting": "[3]; [6]", "result": "Low-level virus replication observed"}, {"measurement": "Day of Peak Virus Production", "setting": "[3]; [6]", "result": "Day 14"}, {"measurement": "Peak RT activity", "setting": "[3]; [6]", "result": "(2,062 cpm)"}, {"measurement": "Comments (virus replication)", "setting": "[3]; [7]", "result": "Low-level virus replication observed"}, {"measurement": "Day of Peak Virus Production", "setting": "[3]; [7]", "result": "Day 6"}, {"measurement": "Peak RT activity", "setting": "[3]; [7]", "result": "(3,109 cpm)"}, {"measurement": "Comments (virus replication)", "setting": "[3]; [8]", "result": "Low-level virus replication observed;"}, {"measurement": "Day of Peak Virus Production", "setting": "[3]; [8]", "result": "Day 14"}, {"measurement": "Peak RT activity", "setting": "[3]; [8]", "result": "(1,788 cpm)"}, {"measurement": "Comments (virus replication)", "setting": "[3]; [9]", "result": "Robust virus replication observed;"}, {"measurement": "Day of Peak Virus Production", "setting": "[3]; [9]", "result": "Day 19"}, {"measurement": "Peak RT activity", "setting": "[3]; [9]", "result": "(23,508)"}, {"measurement": "Comments (virus replication)", "setting": "[3]; [10]", "result": "Robust virus replication observed; minor"}, {"measurement": "Day of Peak Virus Production", "setting": "[3]; [10]", "result": "Day 7"}, {"measurement": "Peak RT activity", "setting": "[3]; [10]", "result": "(24,408 cpm)"}, {"measurement": "Comments (virus replication)", "setting": "[3]; [11]", "result": "Robust virus replication observed; E404D"}, {"measurement": "Day of Peak Virus Production", "setting": "[3]; [11]", "result": "Day 9"}, {"measurement": "Peak RT activity", "setting": "[3]; [11]", "result": "(57,455 cpm)"}, {"measurement": "Comments (virus replication)", "setting": "[3]; [12]", "result": "Robust virus replication observed;"}, {"measurement": "Day of Peak Virus Production", "setting": "[3]; [12]", "result": "Day 11"}, {"measurement": "Peak RT activity", "setting": "[3]; [12]", "result": "(25,458 cpm)"}, {"measurement": "Comments (virus replication)", "setting": "[3]; [13]", "result": "Robust virus replication observed;"}, {"measurement": "Day of Peak Virus Production", "setting": "[3]; [13]", "result": "Day 7"}, {"measurement": "Peak RT activity", "setting": "[3]; [13]", "result": "(31,549 cpm)"}]}]}
